pEC50: −log10 of the molar value.
Target: P2Y purinoceptor 6 (Homo sapiens, UniProt Q15077)
Test: Stimulation of phospholipase C in 1321N1 astrocytoma cells transfected with human P2Y6 receptor
Assay type: cell-based
Conditions: for pEC50: read-out: EC50; call rule not given here

P2Y purinoceptor 6, sequence (Q15077 whole entry): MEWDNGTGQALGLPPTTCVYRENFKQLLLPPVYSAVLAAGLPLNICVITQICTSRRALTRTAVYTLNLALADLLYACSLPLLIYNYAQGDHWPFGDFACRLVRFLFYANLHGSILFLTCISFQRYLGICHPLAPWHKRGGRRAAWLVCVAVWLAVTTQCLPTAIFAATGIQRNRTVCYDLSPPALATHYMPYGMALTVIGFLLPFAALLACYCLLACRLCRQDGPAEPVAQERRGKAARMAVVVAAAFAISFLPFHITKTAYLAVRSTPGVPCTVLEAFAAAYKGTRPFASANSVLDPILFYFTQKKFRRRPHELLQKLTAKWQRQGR

pEC50 | EC50 | SMILES
7.07 | – | O=c1ccn([C@@H]2O[C@H](COP(=O)(O)OP(=O)(O)O)[C@@H](O)[C@H]2O)c(=O)[nH]1 [URIDINE_DIPHOSPHATE]
6.64 | – | O=c1ccn([C@@]23C[C@H](O)[C@@H](COP(=O)(O)OP(=O)(O)O)[C@@H]2C3)c(=O)[nH]1
– | Not Active | O=c1ccn([C@H]2[C@H](O)[C@H](O)[C@@]3(COP(=O)(O)OP(=O)(O)O)C[C@H]23)c(=O)[nH]1
5.76 | – | O=c1ccn([C@H]2C[C@H](O)[C@@H](COP(=O)(O)OP(=O)(O)O)O2)c(=O)[nH]1

— ChEMBL document CHEMBL1140428, “Human P2Y(6) receptor: molecular modeling leads to the rational design of a novel agonist based on a unique conformational preference” (J Med Chem, 2005)
